In brackets after ≈: the same amount, converted by molar mass. Where two headings read alike, the source gives them in different places.
Experiments:
Aspergillus fumigatus = test: Antifungal assay, macrobroth 2-fold serial dilution MIC
Candida parapsilosis = test: as above; details: Lodderomyces parapsilosis
Candida tropicalis = test: as above
Epidermophyton floccosum = test: as above
Cryptococcus neoformans = test: as above
Candida albicans = test: as above
Microsporum canis = test: as above
Trichophyton rubrum = test: as above
M. gallisepticum = test: Antimycoplasma assay, MIC in microtiter plates; details: Mycoplasmoides gallisepticum
Experimental: (§1) Briefly, 96-well microtiter Sensititre plates containing stabilized and freeze-dried antimicrobials were used. Three wells on each plate were set as antimicrobial free growth control. Freshly thawed mycoplasma isolates with known titers were diluted in liquid medium until the number of organisms reached 10^4 color changing units/mL. 50 μL of the diluted culture was transferred into each well of the Sensititre plates. […] The plates were sealed using an adhesive foil and incubated at 36 °C for 14 days. The growth of M. hyopneumoniae was observed daily when the color of the medium changed from red to yellow (phenol red indicator), and the initial and final MICs were recorded.

M. hyopneumoniae = test: Antimycoplasma assay, MIC in microtiter plates; details: Mesomycoplasma hyopneumoniae
Experimental: as §1

[1] = system: M. tuberculosis H37Ra ATCC 25177; test: Microdilution alamar blue assay (MABA)
Experimental: Briefly, each of the above Mycobacterium strains was cultured at 37 °C in Middlebrook 7H9 broth supplemented with 0.2 % glycerol and 10 % Oleic Acid-Albumin-Dextrose-Catalase (Sigma, St Louis, MO, USA) until logarithmic growth was reached. About 6 × 10^6 CFU/mL inoculum of Mycobacterium strain was then added to the two fold serially diluted drug samples. The final concentration of DMSO in all assays was 2.5 % or less and this dilution also served as solvent control. The samples were assayed in triplicate. All tests were carried out in sterile flat bottom 96-well microplates. Each microplate was incubated for 5 days at 37 °C in a sealed plastic CO2-permeable bag. After 7 days of incubation, 32 μL of a mixture of freshly prepared Alamar Blue solution and 20 % sterile Tween-80 at 1:1 (v/v) were added to the growth-control well. The microplates were incubated at 37 °C for 24 h. […] A well-defined pink color was interpreted as positive bacterial growth, whereas a blue color indicated an absence of growth.

PK-15 cells = test: Cytotoxicity assay (MTT); details: for TC50: PK-15, 72 h, MTT, mean ± SD, n = 4; for MNTC: PK-15, maximum non-cytotoxic concentration (90 % cell viability)
PPV = test: Antiviral assay (CPE/MTT; adsorption inhibition, infection inhibition, virucidal); assay type: cell-based, porcine parvovirus; design: key to IC50: “--” represent not detected owing to the low inhibition ratio; details: PPV, mean±SD of four experiments
Marc-145 cells = test: Cytotoxicity assay (MTT); details: for TC50: Marc-145, 72 h, MTT, mean ± SD, n = 4; for MNTC: Marc-145, maximum non-cytotoxic concentration (90 % cell viability)
M. bovis ATCC 19210 = test: microbe, parasite or virus in culture; assay type: cell-based, Mycobacterium bovis; details: Mycobacterium tuberculosis variant bovis, ATCC19210
[2] = system: M. tuberculosis H37Rv ATCC 27294; test: Microdilution alamar blue assay (MABA); assay type: cell-based, Mycobacterium tuberculosis; details: Mycobacterium tuberculosis, read-out: MIC
DF-1 cells = test: Cytotoxicity assay (MTT); details: for TC50: DF-1, 72 h, MTT, mean ± SD, n = 4; for MNTC: DF-1, maximum non-cytotoxic concentration (90 % cell viability)
M. tuberculosis complex = test: Combination susceptibility assay (checkerboard method), overall statements; assay type: cell-based; details: combined with rifampicin
Mycoplasma gallisepticum = test: Combination susceptibility assay (checkerboard method); assay type: cell-based; details: combined with tetracyclines (tetracycline and doxycycline), M. gallisepticum
PRRSV = test: Antiviral assay (CPE/MTT; adsorption inhibition, infection inhibition, virucidal); assay type: cell-based, porcine reproductive and respiratory syndrome virus; design: key to IC50: “--”represent not detected owing to the low inhibition ratio; details: PRRSV, mean±SD of four experiments
IBDV = test: as above; assay type: cell-based, infectious bursal disease virus; design: key to IC50: “--” represent not detected owing to the low inhibition ratio; details: IBDV, mean±SD of four experiments
mycoplasma = test: Antimycoplasma assay, overall statements; assay type: cell-based; details: range over Mycoplasma gallisepticum and Mycoplasma hyopneumoniae strains
[3] = A. fumigatus 3.5301, deep fungi
[4] = A. fumigatus 3.5352, deep fungi
[5] = Candida tropicalis, C. tropicalis 2.2735, deep fungi
[6] = Candida tropicalis, C. tropicalis 7349, deep fungi
[7] = M. gallisepticum BG44T (10^4ccu/mL)
[8] = M. gallisepticum MG-HS (10^6ccu/mL)
[9] = M. gallisepticum PG31 (10^8 ccu/mL)

## C[C@@H]1[C@H](O)[C@@H](C)/C=C/C=C/C=C/C=C/C=C/C=C/C=C/[C@H](O[C@@H]2O[C@H](C)[C@@H](O)[C@H](N)[C@@H]2O)C[C@@H]2O[C@](O)(C[C@@H](O)C[C@@H](O)[C@H](O)CC[C@@H](O)C[C@@H](O)CC(=O)O[C@H]1C)C[C@H](O)[C@H]2C(=O)O [AMB, amphotericin B]
Aspergillus fumigatus; [3]
  MIC: 0.5 µg/mL (≈ 0.541 µM)
Aspergillus fumigatus; [4]
  MIC: 0.5 µg/mL (≈ 0.541 µM)
Candida parapsilosis
  MIC: 1 µg/mL (≈ 1.08 µM)
Candida tropicalis; [5]
  MIC: 2 µg/mL (≈ 2.16 µM)
Candida tropicalis; [6]
  MIC: 2 µg/mL (≈ 2.16 µM)
Epidermophyton floccosum
  MIC: 0.5 µg/mL (≈ 0.541 µM)
Epidermophyton floccosum; CBS566094
  MIC: 0.5 µg/mL (≈ 0.541 µM)
Cryptococcus neoformans
  MIC: 0.5 µg/mL (≈ 0.541 µM)
Candida albicans; C. albicans 2.4122, deep fungi
  MIC: 2 µg/mL (≈ 2.16 µM)
Candida albicans; C. albicans 90028, deep fungi
  MIC: 1 µg/mL (≈ 1.08 µM)
Microsporum canis
  MIC: 1 µg/mL (≈ 1.08 µM)
Microsporum canis; CBS113480
  MIC: 0.5 µg/mL (≈ 0.541 µM)
Trichophyton rubrum
  MIC: 1 µg/mL (≈ 1.08 µM)
Trichophyton rubrum; ATCC4438
  MIC: 1 µg/mL (≈ 1.08 µM)

## CCN1CCN(c2cc3c(cc2F)c(=O)c(C(=O)O)cn3C2CC2)CC1 [Enrofloxacin, enrofloxacin]
M. gallisepticum; [7]
  MIC: 0.013 µg/mL (≈ 0.0362 µM)
M. gallisepticum; [8]
  MIC: 0.05 µg/mL (≈ 0.139 µM)
M. gallisepticum; [9]
  MIC: 0.025 µg/mL (≈ 0.0696 µM)
M. hyopneumoniae
  MIC: 0.025 µg/mL (≈ 0.0696 µM)

## N#CCC(=O)N/N=C/c1c[n+]([O-])c2ccccc2[n+]1[O-] [CYA, cyadox]
Aspergillus fumigatus; [3]
  MIC: 64 µg/mL (≈ 236 µM)
Aspergillus fumigatus; [4]
  MIC: 32 µg/mL (≈ 118 µM)
[1]
  MIC: 64 µg/mL (≈ 236 µM)
PK-15 cells
  TC50: 15.31 ± 1.23 µg/mL (≈ 56.4 µM)
  MNTC: 1.2 µg/mL
Candida parapsilosis
  MIC: 32 µg/mL (≈ 118 µM)
PPV; Inactivation
  IC50: --
PPV; Prevention
  IC50: --
PPV; Treatment
  IC50: --
Marc-145 cells
  TC50: 16.92 ± 1.28 µg/mL (≈ 62.4 µM)
  MNTC: 1.56 µg/mL
M. bovis ATCC 19210
  MIC: 8 µg/mL (≈ 29.5 µM)
[2]
  MIC: 4 µg/mL (≈ 14.7 µM)
Candida tropicalis; [5]
  MIC: 32 µg/mL (≈ 118 µM)
Candida tropicalis; [6]
  MIC: 32 µg/mL (≈ 118 µM)
DF-1 cells
  TC50: 17.26 ± 1.27 µg/mL (≈ 63.6 µM)
  MNTC: 1.0 µg/mL
M. gallisepticum; [7]
  MIC: 32 µg/mL (≈ 118 µM)
M. gallisepticum; [8]
  MIC: 16 µg/mL (≈ 59 µM)
M. gallisepticum; [9]
  MIC: 16 µg/mL (≈ 59 µM)
Epidermophyton floccosum
  MIC: 32 µg/mL (≈ 118 µM)
Epidermophyton floccosum; CBS566094
  MIC: 32 µg/mL (≈ 118 µM)
Cryptococcus neoformans
  MIC: 16 µg/mL (≈ 59 µM)
M. tuberculosis complex
  FIC: 0.75
Mycoplasma gallisepticum
  Combined effect: additive (0.5 to 1, additive)
Candida albicans; C. albicans 2.4122, deep fungi
  MIC: 32 µg/mL (≈ 118 µM)
Candida albicans; C. albicans 90028, deep fungi
  MIC: 64 µg/mL (≈ 236 µM)
Microsporum canis
  MIC: 32 µg/mL (≈ 118 µM)
Microsporum canis; CBS113480
  MIC: 16 µg/mL (≈ 59 µM)
PRRSV; Inactivation
  IC50: --
PRRSV; Prevention
  IC50: --
PRRSV; Treatment
  IC50: --
Trichophyton rubrum
  MIC: 32 µg/mL (≈ 118 µM)
Trichophyton rubrum; ATCC4438
  MIC: 32 µg/mL (≈ 118 µM)
IBDV; Inactivation
  IC50: --
IBDV; Prevention
  IC50: --
IBDV; Treatment
  IC50: --
M. hyopneumoniae
  MIC: 16 µg/mL (≈ 59 µM)

## CC[C@H]1OC(=O)C[C@@H](O)[C@H](C)[C@@H](O[C@@H]2O[C@H](C)[C@@H](O[C@H]3C[C@@](C)(O)[C@@H](O)[C@H](C)O3)[C@H](N(C)C)[C@H]2O)[C@@H](CC=O)C[C@@H](C)C(=O)/C=C/C(C)=C/[C@@H]1CO[C@@H]1O[C@H](C)[C@@H](O)[C@@H](OC)[C@H]1OC [Tylosin, tylosin]
M. gallisepticum; [7]
  MIC: 0.05 µg/mL (≈ 0.0546 µM)
M. gallisepticum; [8]
  MIC: 0.025 µg/mL (≈ 0.0273 µM)
M. gallisepticum; [9]
  MIC: 0.025 µg/mL (≈ 0.0273 µM)
M. hyopneumoniae
  MIC: 0.05 µg/mL (≈ 0.0546 µM)

## NCC[C@H](O)C(=O)N[C@@H]1C[C@H](N)[C@@H](O[C@H]2O[C@H](CN)[C@@H](O)[C@H](O)[C@H]2O)[C@H](O)[C@H]1O[C@H]1O[C@H](CO)[C@@H](O)[C@H](N)[C@H]1O [Amikacin]
M. bovis ATCC 19210
  MIC: 1.6 µg/mL (≈ 2.73 µM)
[2]
  MIC: 3.2 µg/mL (≈ 5.46 µM)

## NNC(=O)c1ccncc1 [Isoniazid, isoniazid]
[1]
  MIC: 16 µg/mL (≈ 117 µM)
M. bovis ATCC 19210
  MIC: 0.025 µg/mL (≈ 0.182 µM)
[2]
  MIC: 0.025 µg/mL (≈ 0.182 µM)

## CC(=O)N1CCN(c2ccc(OCC3COC(Cn4ccnc4)(c4ccc(Cl)cc4Cl)O3)cc2)CC1 (stereo not drawn) [KCZ, ketoconazole]
Aspergillus fumigatus; [3]
  MIC: 0.25 µg/mL (≈ 0.47 µM)
Aspergillus fumigatus; [4]
  MIC: 0.5 µg/mL (≈ 0.941 µM)
Candida parapsilosis
  MIC: 0.125 µg/mL (≈ 0.235 µM)
Candida tropicalis; C. tropicalis 2.2735, deep fungi
  MIC: 0.5 µg/mL (≈ 0.941 µM)
Candida tropicalis; Candida tropicalis
  MIC: 0.5 µg/mL (≈ 0.941 µM)
Epidermophyton floccosum
  MIC: 0.25 µg/mL (≈ 0.47 µM)
Epidermophyton floccosum; CBS566094
  MIC: 0.25 µg/mL (≈ 0.47 µM)
Cryptococcus neoformans
  MIC: 0.25 µg/mL (≈ 0.47 µM)
Candida albicans; C. albicans 2.4122, deep fungi
  MIC: 0.5 µg/mL (≈ 0.941 µM)
Candida albicans; C. albicans 90028, deep fungi
  MIC: 0.25 µg/mL (≈ 0.47 µM)
Microsporum canis
  MIC: 0.5 µg/mL (≈ 0.941 µM)
Microsporum canis; CBS113480
  MIC: 0.25 µg/mL (≈ 0.47 µM)
Trichophyton rubrum
  MIC: 0.5 µg/mL (≈ 0.941 µM)
Trichophyton rubrum; ATCC4438
  MIC: 0.5 µg/mL (≈ 0.941 µM)

## CO[C@H]1/C=C/O[C@@]2(C)Oc3c(C)c(O)c4c(O)c(c(/C=N/N5CCN(C)CC5)c(O)c4c3C2=O)NC(=O)/C(C)=C\C=C\[C@H](C)[C@H](O)[C@@H](C)[C@@H](O)[C@@H](C)[C@H](OC(C)=O)[C@@H]1C [Rifampicin, rifampicin]
[1]
  MIC: 1.6 µg/mL (≈ 1.94 µM)
M. bovis ATCC 19210
  MIC: 0.025 µg/mL (≈ 0.0304 µM)
[2]
  MIC: 0.05 µg/mL (≈ 0.0608 µM)

## [H]/N=C(/N)N[C@H]1[C@H](O)[C@@H](O)[C@H](O[C@@H]2O[C@@H](C)[C@](O)(C=O)[C@H]2O[C@@H]2O[C@@H](CO)[C@H](O)[C@@H](O)[C@@H]2NC)[C@@H](N/C(N)=N\[H])[C@@H]1O [Streptomycin, streptomycin]
M. bovis ATCC 19210
  MIC: 0.013 µg/mL (≈ 0.0224 µM)
[2]
  MIC: 0.025 µg/mL (≈ 0.043 µM)

## Cc1c(C(=O)/C=C/c2ccccc2)[n+]([O-])c2ccccc2[n+]1[O-] [QCT, quinocetone]
Aspergillus fumigatus; [3]
  MIC: 64 µg/mL (≈ 209 µM)
Aspergillus fumigatus; [4]
  MIC: 64 µg/mL (≈ 209 µM)
[1]
  MIC: 64 µg/mL (≈ 209 µM)
mycoplasma
  MIC: 8 to 16 µg/mL (≈ 26.1 to 52.2 µM)
PK-15 cells
  TC50: 2.38 ± 0.27 µg/mL (≈ 7.77 µM)
  MNTC: 0.2 µg/mL
Candida parapsilosis
  MIC: 64 µg/mL (≈ 209 µM)
PPV; Inactivation
  IC50: --
PPV; Prevention
  IC50: --
PPV; Treatment
  IC50: --
Marc-145 cells
  TC50: 8.90 ± 1.05 µg/mL (≈ 29.1 µM)
  MNTC: 0.39 µg/mL
M. bovis ATCC 19210
  MIC: 4 µg/mL (≈ 13.1 µM)
[2]
  MIC: 4 µg/mL (≈ 13.1 µM)
Candida tropicalis; [5]
  MIC: > 64 µg/mL
Candida tropicalis; [6]
  MIC: > 64 µg/mL
DF-1 cells
  TC50: 9.89 ± 1.08 µg/mL (≈ 32.3 µM)
  MNTC: 0.25 µg/mL
M. gallisepticum; [7]
  MIC: 8 µg/mL (≈ 26.1 µM)
M. gallisepticum; [8]
  MIC: 16 µg/mL (≈ 52.2 µM)
M. gallisepticum; [9]
  MIC: 16 µg/mL (≈ 52.2 µM)
Epidermophyton floccosum
  MIC: 32 µg/mL (≈ 104 µM)
Epidermophyton floccosum; CBS566094
  MIC: 32 µg/mL (≈ 104 µM)
Cryptococcus neoformans
  MIC: 64 µg/mL (≈ 209 µM)
M. tuberculosis complex
  FIC: 0.75
Mycoplasma gallisepticum
  Combined effect: additive (0.5 to 1, additive)
Candida albicans; C. albicans 2.4122, deep fungi
  MIC: > 64 µg/mL
Candida albicans; C. albicans 90028, deep fungi
  MIC: > 64 µg/mL
Microsporum canis
  MIC: 16 µg/mL (≈ 52.2 µM)
Microsporum canis; CBS113480
  MIC: 8 µg/mL (≈ 26.1 µM)
PRRSV; Inactivation
  IC50: --
PRRSV; Prevention
  IC50: --
PRRSV; Treatment
  IC50: --
Trichophyton rubrum
  MIC: 32 µg/mL (≈ 104 µM)
Trichophyton rubrum; ATCC4438
  MIC: 32 µg/mL (≈ 104 µM)
IBDV; Inactivation
  IC50: --
IBDV; Prevention
  IC50: --
IBDV; Treatment
  IC50: --
M. hyopneumoniae
  MIC: 16 µg/mL (≈ 52.2 µM)

From publication PMC5011961, “In vitro antimicrobial activities of animal-used quinoxaline 1,4-di-N-oxides against mycobacteria, mycoplasma and fungi” (BMC Veterinary Research, 2016)
